We go through one molecule from paper PMC12304826, “Redirecting the Peptide Cleavage Causes Protease Inactivation” (Angewandte Chemie (International Ed. in English), 2025).

The assay concerns the target T1, human cathepsin K (Homo sapiens, UniProt P43235).
T1 construct: purchased Enzo Life Sciences, Lörrach, Germany
T1 sequence (P43235 115-329): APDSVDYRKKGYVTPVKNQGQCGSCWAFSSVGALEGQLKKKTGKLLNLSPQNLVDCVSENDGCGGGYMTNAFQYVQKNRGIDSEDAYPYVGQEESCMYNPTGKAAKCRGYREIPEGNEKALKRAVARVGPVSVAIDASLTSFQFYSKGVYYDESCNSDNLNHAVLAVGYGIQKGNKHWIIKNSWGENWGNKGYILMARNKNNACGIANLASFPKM
Description: Cathepsin K inhibition assay (Cbz-Leu-Arg-AMC). In kind it is biochemical. To be noted: 20 µM inhibitor, 60 min; read-out: Residual activity @ 20 µM (%) Cat K. On the procedure:
1. Enzyme Inhibition Assays and Kinetic Data of Inhibition of Cathepsins B, L, K and S General. Human cathepsins were assayed either fluorimetrically or spectrophotometrically as noted below. The 10 mM inhibitor solutions were prepared in DMSO. The final concentration of DMSO in all assays was 2%. Non-linear regressions were conducted with GraFit 5. Residual cathepsin activity at an inhibitor concentration of 20 µM was determined from duplicate measurements based on the product formation after 60 min. Concentration dependent measurements were performed in duplicate measurements with five different inhibitor concentrations when the residual cathepsin activity in the presence of 20 µM inhibitor was below 70% (cathepsin B) or below 50% (cathepsins cathepsins L, K, and S). Progress curves were monitored for 60 min. First-order rate constants, kobs, were determined by non-linear regression following the equation [P] = vi × (1 – exp(-kobs × t))/kobs + d, where [P] is the product concentration, vi is the initial product formation rate, kobs is the observed first-order rate constant, and d is the offset. Mean values of kobs were plotted versus corresponding inhibitor concentrations [I], and second-order rate constants of inactivation, kinac/Ki, were obtained by linear regression. The equation kobs/[I] = (kinac/Ki)/(1 + [S]/Km) was used, where [S] is the substrate concentration and Km is the Michaelis-Menten constant. Standard errors (SE) refer to the linear regression. […] Cathepsin K inhibition assay.[1] Human recombinant cathepsin K (Enzo Life Sciences, Lörrach, Germany) was assayed fluorimetrically on a Monaco Safas spectrofluorometer flx or a Fluostar OPTIMA plate reader (BMG Labtech, Ortenberg, Germany). The wavelength for excitation was 360 nm and for emission 440 nm. The reactions were followed at 25 °C. A human cathepsin K stock solution of 23 µg/mL in 50 mM sodium acetate pH 5.5, 50 mM NaCl, 0.5 mM EDTA, 5 mM DTT was diluted 1:100 with assay buffer (100 mM sodium citrate pH 5.0, 100 mM NaCl, 1 mM EDTA, 0.01% CHAPS) containing 5 mM DTT and incubated for 30 min at 37 °C. A 10 mM stock solution of the 7-amino-4-methyl-coumarin (AMC)-based fluorogenic substrate Cbz-Leu-Arg-AMC was prepared in DMSO. The final concentration of the substrate was 40 μM (= 13.3 Km). When using the spectrofluorometer, into a cuvette containing 960 μL assay buffer, inhibitor solution and DMSO in a total volume of 16 μL, and 4 μL of the substrate solution were added and mixed. The reaction was initiated by adding 20 µL of the cathepsin K solution. When using the plate reader, into a well containing 192 µL assay buffer, inhibitor solution and DMSO in a total volume of 3.2 µL and 0.8 µL of the substrate solution were added and mixed. The reaction was initiated by adding 4 µL of the cathepsin K solution.
Cathepsin S inhibition assay.[2] […]
DTT, 0.5% Triton X-100 and 30% glycerol was diluted 1:100 with a 50 mM sodium phosphate buffer pH 6.5, 50 mM NaCl, 2 mM EDTA, 0.01% Triton X-100 and 5 mM DTT and incubated for 60 min at 37 °C. A 10 mM stock solution of the fluorogenic substrate Cbz-Phe-Arg-AMC was prepared in DMSO.
The assay was performed with a final substrate concentration of 40 µM (= 0.74 Km). When using the spectrofluorometer, into a cuvette containing 920 μL assay buffer, inhibitor solution and DMSO in a total volume of 16 μL, and 4 μL of the substrate solution were added and mixed. The reaction was initiated by adding 60 μL of the cathepsin S solution. When using the plate reader, into a well containing 188 µL assay buffer, inhibitor solution and DMSO in a total volume of 3.2 µL and 0.8 µL of the substrate solution were added and mixed. The reaction was initiated by adding […] of the cathepsin S solution.

Take `CC(C)CC(C(=O)NC(Cc1ccccc1)C(=O)O)N(C)C(=O)Oc1ccc(Cl)cc1` (stereo not shown) [Compound 14]: the remaining activity at 20 µM is 76%.
